Where two headings read alike, the source gives them in different places.
Tests used:
Format in all cases: cell-based
[1] = test system: human lung cancer cell line NCI-H460; assay: Proliferation of NCI-H460 cells (CCK8 kit)
Protocol: 2.1 Cultivation of NCI-H460 Cells. The Cells, when Grow to the Logarithmic Growth phase, were digested with 0.25% trypsin, centrifuged at 1000×g for 5 min, and the cell pellet were re-suspended with 1640 medium containing 10% FBS and inoculated in a 96-well culture plate at a density of 5000 cells/well, and then cultured overnight at 37° C., 5% CO2 and saturated humidity.
2.2 Six duplicate wells were set in each group, and drugs were added to each well according to the following conditions, and then cultured for 24 h.
Control group: The group without drugs.
Magnolol group: Magnolol added at a final concentration of 20 μM.
CT-1 group: CT-1 added at a final concentration of 20 μM.
CT-2 group: CT-2 added at a final concentration of 20 μM.
CT-3 group: CT-3 added at a final concentration of 20 μM.
The above cells were intervened for 24 hours, and then the effects of drugs on tumor cell proliferation were detected by using CCK8 kit. The specific operations are as follows: […] was added to each well and cultured for 2 h, and then the absorbance (OD) value at a wavelength of 450 nm was measured on a microplate reader, and the cell survival rate of the other groups was calculated on the basis of the cell survival rate of the control group as 100%.

[2] = test system: human lung cancer cell line H1650; assay: Proliferation of H1650 cells (CCK8 kit)
Protocol: (§1) Human glioma cell line U251, human lung cancer cell line H1650, human liver cancer cell line HepG2, human breast cancer cell line MDA-MB-231, human gastric cancer cell line AGS, human colon cancer cell line LOVO, human ovarian cancer cell line OVCAR3. 2.1 Cultivation of the above 7 kinds of cancer cells. The cells, when grow to the logarithmic growth phase, were digested with 0.25% trypsin, centrifuged at 1000×g for 5 min, and the cell pellet were re-suspended with 1640 medium containing 10% FBS and inoculated in a 96-well culture plate at a density of 5000 cells/well, and then cultured overnight at 37° C., 5% CO2 and saturated humidity. 2.2 Each group was set up with 6 duplicate wells, and drugs were added to each well according to the following conditions, and then cultured for 24 h. Positive control groups: […] Sulforaphane added at a final concentration of 5.0 μM; • Positive control group 5: Sulforaphane added at a final concentration of 10.0 μM; • Positive control group 6: Sulforaphane added at a final concentration of 20.0 μM. CT-3 groups: Divided into 3 groups: • CT-3 group 1: CT-3 added at a final concentration of 5.0 μM; • CT-3 group 2: CT-3 added at a final concentration of 10.0 μM; • CT-3 group 3: CT-3 added at a final concentration of 20.0 μM. The above cells were intervened for 24 hours, and then the effects of drugs on tumor cell proliferation were detected by using CCK8 kit.

[3] = test system: human breast cancer cell line MDA-MB-231; assay: Proliferation of MDA-MB-231 cells (CCK8 kit); settings: MDA-MB-231, 24 h
Protocol: as §1

[4] = test system: human glioma cell line U251; assay: Proliferation of U251 cells (CCK8 kit)
Protocol: as §1

[5] = test system: human liver cancer cell line HepG2; assay: Proliferation of HepG2 cells (CCK8 kit); settings: HepG2, 24 h
Protocol: as §1

[6] = test system: human colon cancer cell line LOVO; assay: Proliferation of LOVO cells (CCK8 kit); settings: 24 h
Protocol: as §1

[7] = test system: human lung cancer cell line NCI-H460; assay: Apoptosis of NCI-H460 cells (apoptosis detection kit, flow cytometry); settings: NCI-H460, 10.0 μM, 24 h
Protocol: (§2) The cells, when grow to the logarithmic growth phase, were digested with 0.25% trypsin, centrifuged at 1000×g for 5 min, and the cell pellet were re-suspended with 1640 medium containing 10% FBS and inoculated in a 96-well culture plate at a density of 3.0×10^5 cells/well, and then cultured overnight at 37° C., 5% CO2 and saturated humidity. 2.2 Each group was set up with 3 duplicate wells, and drugs were added to each well according to the following conditions, and then cultured for 24 h. […] Sulforaphane added at a final concentration of 10.0 μM. CT-3 group: CT-3 added at a final concentration of 10.0 μM. The above cells were intervened for 24 hours, and then the effect of CT-3 on tumor cell apoptosis was determined by apoptosis detection kit and flow cytometry.

[8] = test system: human ovarian cancer cell line OVCAR3; assay: Proliferation of OVCAR3 cells (CCK8 kit)
Protocol: as §1

[9] = test system: seven human cancer cell lines; assay: Proliferation of seven human cancer cell lines (CCK8 kit), summary over the panel
Protocol: as §1

[10] = test system: human colon cancer cell line SW480; assay: Apoptosis of SW480 cells (apoptosis detection kit, flow cytometry); settings: SW480, 10.0 μM, 24 h
Protocol: as §2, with “in a 6-well culture plate” for “in a 96-well culture plate”, “group: CT-3 was added at” for “group: CT-3 added at”

[11] = test system: human hepatic normal cell line LO2; assay: Apoptosis of normal LO2 cells (apoptosis detection kit, flow cytometry); settings: 24 h
[12] = test system: human gastric cancer cell line AGS; assay: Proliferation of AGS cells (CCK8 kit); settings: 24 h
Protocol: as §1

[13] = NCI-H460, 20 μM, 24 h, CCK8, read-out: Inhibition Rate (%)
[14] = NCI-H1650, H1650, 24 h, CCK8, read-out: Half maximal inhibitory concentration (IC50)
[15] = CCK8, read-out: Half maximal inhibitory concentration (IC50)
[16] = U-251, U251, 24 h, CCK8, read-out: Half maximal inhibitory concentration (IC50)
[17] = LOVO, CCK8, read-out: Half maximal inhibitory concentration (IC50)
[18] = OVCAR-3, OVCAR3, 24 h, CCK8, read-out: Half maximal inhibitory concentration (IC50)
[19] = U251, H1650, HepG2, MDA-MB-231, AGS, LOVO, OVCAR3, 24 h, CCK8, read-out: IC50 against 7 kinds of human cancer cells (range over the panel)
[20] = read-out: Half maximal inhibitory concentration (IC50)

Row | Compound | inhibition at 20 µM [1, 13] | IC50 [2, 14] | IC50 [3, 15] | IC50 [4, 16] | IC50 [5, 15] | IC50 [6, 17] | Apoptosis Rate (%) [7] | IC50 [8, 18] | IC50 [9, 19] | Apoptosis Rate (%) [10] | Apoptosis Rate (%) ([11]; human, 10 μM) | IC50 [12, 15] | other results
1 | C=CCc1ccc(O)c(-c2cc(CC=C)ccc2OCCSCCCCN=C=S)c1 [CT-1] | 18.4% | – | – | – | – | – | – | – | – | – | – | – | –
2 | C[S+]([O-])CCCCN=C=S (stereo not shown) [Sulforaphane] | – | 22 µM | 22.2 µM | 22.5 µM | 21 µM | 18.5 µM | 18.90% | 18.4 µM | 18.4 to 22.5 µM | 19.99% | 6.52% | 18.1 µM | –
3 | C=CCc1ccc(O)c(-c2cc(CC=C)ccc2O)c1 [Magnolol] | – | – | – | – | – | – | 3.12% | – | – | 4.02% | – | – | IC50 ([2]; NCI-H1650, 24 h, read-out: Half maximal inhibitory concentration (IC50)): > 45 µM; IC50 [3, 20]: > 45 µM; inhibition at 20 µM ([1]; NCI-H460, 24 h, read-out: Inhibition Rate (%)): 1.2%; IC50 ([4]; U-251, 24 h, read-out: Half maximal inhibitory concentration (IC50)): > 45 µM; IC50 [5, 20]: > 45 µM; IC50 ([6]; LoVo, read-out: Half maximal inhibitory concentration (IC50)): > 45 µM; IC50 ([8]; OVCAR-3, 24 h, read-out: Half maximal inhibitory concentration (IC50)): > 45 µM; IC50 ([9]; 24 h, read-out: IC50 against 7 kinds of human cancer cells (range over the panel)): > 45 µM; Apoptosis Rate (%) ([11]; normal LO2 cells, 10.0 μM, flow cytometry): 4.71%; IC50 [12, 20]: > 45 µM
4 | C=CCc1ccc(O)c(-c2cc(CC=C)ccc2OCC[S+]([O-])CCCCN=C=S)c1 (stereo not shown) [CT-3] | 99% | 6.92 µM | 7.48 µM | 7.75 µM | 6.24 µM | 5.1 µM | 73.82% | 5.34 µM | 5.1 to 8.02 µM | 61.87% | 6.48% | 8.02 µM | –
5 | C=CCc1ccc(O)c(-c2cc(CC=C)ccc2OCCS(=O)(=O)CCCCN=C=S)c1 [CT-2] | 70.3% | – | – | – | – | – | – | – | – | – | – | – | –
